Assays:
[1] = Solubility test in various solvents; format: physicochemical; conditions: room temperature 25±3° C., visually confirmed 60 minutes after preparation; for Solubility in various solvents MEK: 2-butanone; for Solubility in various solvents IPA: 2-propanol; for Solubility in various solvents CHF: chloroform; for Solubility in various solvents EAC: ethyl acetate; for Solubility in various solvents PGMEA: propylene glycol monomethyl ether acetate; for Solubility in various solvents TOL: toluene
Experimental: The compound UVA-01 (50 mg) obtained by the method described in Synthesis Example 1 was mixed with 450 mg of the solvent described below to prepare a 10% by mass solution. […] Also, 50 mg of UVA-01 was mixed with 950 mg of the solvent described below to prepare a 5% by mass solution, and the same solubility test was performed. The solubility of the compound UVA-01 was visually confirmed in 60 minutes after preparation of each solution. Incidentally, the criteria for evaluation of the test results are as follows.
A: soluble by 10% by mass or more
B: soluble by 5% by mass or more and less than 10% by mass
C: soluble by less than 5% by mass
2-butanone (manufactured by KANTO CHEMICAL CO., INC., hereinafter abbreviated as MEK) 2-propanol (manufactured by NACALAI TESQUE, INC., hereinafter abbreviated as IPA) toluene (manufactured by NACALAI TESQUE, INC., hereinafter abbreviated as TOL) ethyl acetate (manufactured by NACALAI TESQUE, INC., hereinafter abbreviated as EAC) chloroform (manufactured by KANTO CHEMICAL CO., INC., hereinafter abbreviated as CHF) propylene glycol monomethyl ether acetate (manufactured by Tokyo Chemical Industry Co., Ltd., hereinafter abbreviated as PGMEA) The solubility test was performed in the same manner as in Example 1 except for replacing UVA-01 with UVA-02 or UVA-03.
The solubility test was performed in the same manner as in Example 1 except for replacing UVA-01 with UVA-R01.

[2] = Absorption measurement of the compound with spectrophotometer UV-3150; format: physicochemical; conditions: in 2-butanone
From the text: The compound (I) preferably satisfies the following formula (a). ε(420)/ε(400)≤0.4 (a)
The smaller value offers a transparent compound with less yellowness.
Also, the compound (I) preferably satisfies the following formulae (b) and (c) in addition to the formula (a). λmax<420 nm (b) ε(400)≥40 (c)
In the formula (b), λmax denotes maximum absorption wavelength of the compound (I). In the formula (c), ε(400) denotes gram absorption coefficient at a wavelength of 400 nm, and the unit of gram absorption coefficient is defined by L/(g·cm). […]
A compound UVA-R01 was synthesized in accordance with the method described in Patent Literature (DE101 09 243 A1). Refinement was performed by subjecting the solution to column chromatography (silica gel). When absorption maximum wavelength (λmax) was measured by using a spectrophotometer UV-3150 (manufactured by SHIMADZU CORPORATION), the results were such that λmax=389 nm (in 2-butanone), ε(400) was 146 L/(g·cm), and ε(420)/ε(400) was 0.0122. Then, the following peaks were observed through ^1H-NMR analysis, so that it was confirmed that the compound UVA-R01 was produced.

Solubility in various solvents MEK [1]	Solubility in various solvents IPA [1]	Solubility in various solvents CHF [1]	Solubility in various solvents EAC [1]	Solubility in various solvents PGMEA [1]	Solubility in various solvents TOL [1]	absorption maximum wavelength (λmax) [2] [nm]	ε(400), gram absorption coefficient at a wavelength of 400 nm [2] [L/g/cm]	ε(420)/ε(400) [2]	Structure (SMILES)
A (soluble by 10% by mass or more)	A (soluble by 10% by mass or more)	A (soluble by 10% by mass or more)	A (soluble by 10% by mass or more)	A (soluble by 10% by mass or more)	A (soluble by 10% by mass or more)	389	125	0.0153	CCOCCOC(=O)/C(C#N)=C\C=C1/CCCN1C [UVA-01]
A (soluble by 10% by mass or more)	A (soluble by 10% by mass or more)	A (soluble by 10% by mass or more)	A (soluble by 10% by mass or more)	A (soluble by 10% by mass or more)	A (soluble by 10% by mass or more)	388	95.2	0.0161	COCCOCCOCCOC(=O)/C(C#N)=C\C=C1/CCCN1C [UVA-02]
C (soluble by less than 5% by mass)	C (soluble by less than 5% by mass)	C (soluble by less than 5% by mass)	C (soluble by less than 5% by mass)	C (soluble by less than 5% by mass)	C (soluble by less than 5% by mass)	389	146	0.0122	CCOC(=O)/C(C#N)=C\C=C1/CCCN1C [UVA-R01, reference compound]

Structure (SMILES)	Solubility in various solvents MEK [1]	Solubility in various solvents IPA [1]	Solubility in various solvents CHF [1]	Solubility in various solvents EAC [1]	Solubility in various solvents PGMEA [1]	Solubility in various solvents TOL [1]	absorption maximum wavelength (λmax) [2] [nm]	ε(400), gram absorption coefficient at a wavelength of 400 nm [2] [L/g/cm]	ε(420)/ε(400) [2]
CCCCC(CC)COC(=O)/C(C#N)=C\C=C1/CCCN1C (stereo not drawn) [UVA-03]	A (soluble by 10% by mass or more)	A (soluble by 10% by mass or more)	A (soluble by 10% by mass or more)	A (soluble by 10% by mass or more)	B (soluble by 5% by mass or more and less than 10% by mass)	A (soluble by 10% by mass or more)	389	108	0.0132

From US10029982B2, “Light absorptive compound, polymer composition containing the compound, polymer film, and cured layer” (Sumitomo Chemical Company, Limited, priority 2015, dated 2018)
